Measured values as given in paper PMC10850145, “Hormonal steroids induce multidrug resistance and stress response genes in Neisseria gonorrhoeae by binding to MtrR” (Nature Communications, 2024).

Key:
wild type FA19 = assay: Antimicrobial susceptibility spot assay with hormone plus azithromycin or polymyxin B, wild type FA19; type: cell-based, Neisseria gonorrhoeae; details: for resistance to azithromycin in presence of sub-lethal hormone: wild-type FA19, GC agar, 24 h, visual
Protocol: Fig. 5 Effect of steroidal hormones on gonococcal antimicrobial susceptibility.
To determine the minimal inhibitory concentrations (MICs) by the steroidal hormones and their effect on antimicrobial susceptibility, 5 x 10^5 CFU and 1:5 serial dilutions of gonococcal strains were spotted on GC agar plates containing different concentrations of antibiotics and/or hormones as indicated. Antimicrobial susceptibility was assessed after 24 h incubation.

FA19 mtrD::kan (KH14) = tested on: FA19 mtrD::kan (KH14); design: method as in PMID 31744915; details: cited from earlier work
lptA-lacZ expression = assay: β-galactosidase assay, lptA-lacZ fusion (negative control gene); details: WT-lptA-lacZ
ngo1249-lacZ expression = assay: β-galactosidase assay, ngo1249-lacZ fusion (negative control gene); details: WT-NGO1249-lacZ

Compound	resistance to azithromycin in presence of sub-lethal hormone (wild type FA19)	change of MIC by mutations of the mtrD gene (FA19 mtrD::kan (KH14))	Mean Miller units (lptA-lacZ expression; 0.1 µM hormone) [Miller units]	Mean Miller units (lptA-lacZ expression; 1 µM hormone) [Miller units]	Mean Miller units (lptA-lacZ expression; 10 µM hormone) [Miller units]	Mean Miller units (lptA-lacZ expression; 50 µM hormone) [Miller units]	Mean Miller units (lptA-lacZ expression; 100 µM hormone) [Miller units]	Mean Miller units (ngo1249-lacZ expression; 0.1 µM hormone) [Miller units]	Mean Miller units (ngo1249-lacZ expression; 1 µM hormone) [Miller units]	Mean Miller units (ngo1249-lacZ expression; 10 µM hormone) [Miller units]	Mean Miller units (ngo1249-lacZ expression; 50 µM hormone) [Miller units]	Mean Miller units (ngo1249-lacZ expression; 100 µM hormone) [Miller units]	resistance to polymyxin B in presence of hormone (wild type FA19; strain FA19)
CC(=O)[C@H]1CC[C@H]2[C@@H]3CCC4=CC(=O)CC[C@]4(C)[C@H]3CC[C@]12C [Progesterone, progesterone]	elevated levels of resistance	significant decrease	10	13	13	10	12	5	8	8	6.43	6.923	
C[C@]12CC[C@@H]3c4ccc(O)cc4CC[C@H]3[C@@H]1CC[C@@H]2O [β-Estradiol, β-estradiol]	elevated levels of resistance		4.54	7	4.45	6.62	6	5	5	5.32	4.874	4.606	increased resistance
